According to US20230141718A1, “METHODS OF TREATING GLIOBLASTOMA” (CELGENE QUANTICEL RESEARCH, INC., priority 2021, published 2023):
Entries after “also recorded” stand apart in the source; their conditions may differ.

Key:
Type in all cases: in vivo, human
CCR1 RNA = assay: Blood CCR1 RNA pharmacodynamics, CC-90010-GBM-002; settings: for Day 4 blood CCR1 RNA downregulation: 2-4 hours post-dose
Source text: The primary objectives of the study in this example were to establish the safety, maximum tolerated dose (MTD), and recommended phase 2 dose (RP2D) of Compound A. The preliminary efficacy, pharmacokinetics, and pharmacodynamics were also investigated.
The study described in this example (CC-90010-GBM-002/NCT04324840) is a phase 1B dose-finding study investigating standard of care of Compound A in combination with TMZ with or without radiotherapy (RT) in subjects with newly diagnosed GBM. Part A of the study is escalating the oral doses of Compound A in combination with adjuvant TMZ to estimate the MTD and/or the RP2D of Compound A as adjuvant therapy and escalating the oral doses of Compound A in combination with concomitant TMZ+radiotherapy (RT) to estimate the MTD and/or the RP2D of Compound A as concomitant therapy. Part B of the study is the safety and efficacy of Compound A administered at or below the MTD determined for the adjuvant therapy (AT) and concomitant therapy (CT).
The interim results for adjuvant Compound A+temozolomide are described. For adjuvant therapy, patients received Compound A at 15, 30, or 45 mg daily (4 days on/24 days off)+temozolomide administered per label for 6 cycles (150 mg/m^2 at Cycle 1 then 200 mg/m^2; QD for 5 days), followed by Compound A at 45 mg monotherapy daily (4 days on/24 days off).

[1] = Safety (treatment-related adverse events), CC-90010-GBM-001
Source text: (§1) The primary objectives of the study in this example were determination of tumor tissue concentration and plasma pharmacokinetics (PK) of Compound A. The secondary and exploratory objectives included safety, antitumor activity, cerebrospinal fluid concentration, and pharmacodynamics (PD).
The study described in this example (CC-90010-GBM-001 study/NCT04047303) enrolled patients with progressive or recurrent astrocytoma or recurrent glioblastoma who have failed radiation and chemotherapy, and who are candidates for surgical tumor resection as part of their salvage regimen.
(§2) Patients were treated with Compound A at 30 mg daily on Day 1 to Day 4 prior to undergoing indicated tumor resection and to maintain platelet count above the minimum of […] recommended for surgery (Part A, preoperative treatment). Following recovery from surgery and a minimum of 4 weeks from the first dose of Compound A, subjects who were fit to continue were treated with Compound A at 45 mg on a 4 days on/24 days off schedule (180 mg per 28-day cycle). Maintenance treatment continued until disease progression, unacceptable toxicity, or withdrawal of consent.

[2] = tested on: CCR1 (C-C chemokine receptor type 1) mRNA; assay: Blood CCR1 mRNA pharmacodynamics, CC-90010-GBM-001
Method: as §1, §2
Blood HEXIM1 (hexamethylene bis-acetamide-inducible protein 1) mRNA was increased at 72-96 hours following first dose, and the percentage increase correlated with plasma concentration of Compound A at surgery. Tumor HEXIM1 RNA increased in 10 of 11 patients. Additionally, blood HEXIM1 mRNA expression was increased in all subjects at 72-96 hours following the first dose. Percentage HEXIM1 increase was related to plasma Compound A concentration at biopsy.

[3] = Brain tumor tissue, plasma and CSF concentration at resection, CC-90010-GBM-001
Method: as §1, §2
The geometric mean peak of Compound A plasma concentration on Day 4 was 1.90 μM, and the median time to peak concentration was 1.75 hours. The median time from the day 4 dose of Compound A to resection was 23 hours (range, 4.6-31.3). […] At the time of resection, the geometric mean concentrations of Compound A in plasma and brain tumor tissue were 1.02 and 0.74 μM, respectively. Geometric mean free Compound A concentration in brain tissue was calculated to be 0.028 μM. Geometric mean Compound A concentration in CSF (cerebrospinal fluid) was 0.14 μM, and the mean CSF:plasma ratio was 0.17. None of the brain tumor tissue samples for PK analyses was confirmed to comprise homogeneous contrast-enhancing or non-enhancing tumor tissue, precluding measurement in these subgroups.
At Cycle 1 Day 4, the concentration of Compound A was measured in resected brain tumor from 20 subjects at 6 to 24-hour post dose. At the time of resection (N=19), the mean (f SDev) concentration of Compound A in plasma was 397 f 77.78 ng/mL (geometric mean: 389.23 ng/mL; coefficient of variation: 20.1%). The mean ratio of compound concentration in the resected brain tissue to compound concentration in plasma is 0.84 f 0.25 for 19 of the 20 subjects.

Q: Which “Day 4 blood CCR1 RNA downregulation” value (CCR1 RNA; 15-mg group) does the source give for `Cn1cc(-c2cc(S(C)(=O)=O)ccc2OCC2CC2)c2ccccc2c1=O` [Compound A, 4-[2-(cyclopropylmethoxy)-5-methylsulfonylphenyl]-2-methylisoquinolin-1-one] here?
A: downregulated partially

Q: What about the “Day 4 blood CCR1 RNA downregulation” value (CCR1 RNA; 30-mg group) of the same compound?
A: ≥ 50%

Q: What about the CCR1 downregulation (CCR1 RNA; following first and last dose of ≥30 mg, cycle 1, CC-90010-GBM-002 (FIG. 6)) of the same compound?
A: ≥ 50%

Q: And the “patients with Grade 3/4 TRAEs” value ([1]; N=20)?
A: 45%

Q: What about the “patients with grade 3/4 thrombocytopenia” value ([1]; N=20) of the same compound?
A: 25%

Q: What about the “patients with serious TRAEs (hemiparesis and lethargy)” value ([1]; N=20) of the same compound?
A: one

Q: What about the “patients with ≥1 treatment-related adverse event (TRAE)” value ([1]; N=20) of the same compound?
A: 90%

Q: What about the “tolerability” value ([1]; in vivo) of the same compound?
A: well tolerated

Q: And the “Blood CCR1 mRNA reduction” value ([2]; after Dose 4)?
A: ≥ 50%

Q: What about the “Blood CCR1 mRNA, % of baseline” value ([2]; after Dose 4, standard deviation 28.5) of the same compound?
A: 45.8%

Q: What about the CCR1 downregulation ([2]; following first and last dose of ≥30 mg, cycle 1, CC-90010-GBM-001 (FIG. 5)) of the same compound?
A: ≥ 50%

Q: And the “geometric mean concentration in brain tumor tissue” value ([3]; at the time of resection)?
A: 0.74 µM

Q: What about the “geometric mean concentration in plasma” value ([3]; at the time of resection) of the same compound?
A: 1.02 µM

Q: And the “geometric mean concentration in plasma” value ([3]; at the time of resection (N=19))?
A: 389.23 ng/mL

Q: And the “Geometric mean free concentration in brain tissue” value ([3]; calculated)?
A: 0.028 µM

Q: What about the Kp ([3]; human, brain tumor tissue, 30 mg, as stated in the comparison with other agents, read-out: brain tumor tissue:plasma ratio) of the same compound?
A: 0.14

Q: And the “Geometric mean concentration in CSF (cerebrospinal fluid)” value ([3]; in vivo)?
A: 0.14 µM

Q: What about the “mean CSF:plasma ratio” value ([3]; in vivo) of the same compound?
A: 0.17

Q: And the “BBB / brain tumor tissue penetration” value ([3]; patients with recurrent high-grade glioma)?
A: found to penetrate the BBB and was detected in brain tumor tissue; also recorded: good tumor tissue penetration; also recorded: high brain penetrance
